Laboratory results reported in PMC9833666, “Designing and identifying β-hairpin peptide macrocycles with antibiotic potential” (Science Advances, 2023).
Bridge positions count the residues as written; N and C are the ends. Peptide text beside a SMILES is read from it.

Tested on: Escherichia coli W3110
Type: cell-based
Conditions: for Ec W3110 MIC MH: E. coli W3110, MH medium; for Ec W3110 MIC RPMI: E. coli W3110, RPMI medium

SMILES	Ec W3110 MIC MH [µg/mL]	Ec W3110 MIC RPMI [µg/mL]	W3110 MIC MH [µg/mL]	W3110 MIC RPMI [µg/mL]	W3110 MIC [µg/mL]
CC[C@H](C)[C@@H]1NC(=O)[C@H](CCCCN)NC(=O)[C@H]([C@@H](C)CC)NC(=O)[C@H](CCCNC(=N)N)NC(=O)[C@@H](N)CSSC[C@@H](C(=O)O)NC(=O)[C@H](CCC(N)=O)NC(=O)[C@H](C(C)C)NC(=O)[C@H](CCC(N)=O)NC(=O)[C@H](CC(C)C)NC(=O)[C@H](CCCCN)NC(=O)[C@H](CC(C)C)NC(=O)[C@H](CCCNC(=N)N)NC(=O)[C@H](CCCNC(=N)N)NC(=O)[C@H](CO)NC(=O)CNC(=O)[C@H](CC(=O)O)NC(=O)[C@H](CC(N)=O)NC(=O)[C@H](C(C)C)NC(=O)[C@H](CC(N)=O)NC1=O [SySA-8] (H-CRIKINVNDGSRRLKLQVQC-OH; disulfide 1-20; N-terminus and C-terminus assumed)	256	256	256	256	–
CC[C@H](C)[C@@H]1NC(=O)[C@H](CCCNC(=N)N)NC(=O)[C@H](C(C)C)NC(=O)[C@H](CCCNC(=N)N)NC(=O)[C@H](CO)NC(=O)CNC(=O)CNC(=O)[C@H](CC(N)=O)NC(=O)[C@H](CC(N)=O)NC(=O)[C@H](C(C)C)NC(=O)[C@H](CCCNC(=N)N)NC(=O)[C@H]([C@@H](C)CC)NC(=O)[C@H](CCCNC(=N)N)NC(=O)[C@H](CC(C)C)NC(=O)[C@@H](N)CSSC[C@@H](C(=O)O)NC(=O)[C@H](C(C)C)NC(=O)[C@H](CCC(=O)O)NC(=O)[C@H](CC(C)C)NC(=O)[C@H](CO)NC1=O [SyRA-10] (H-CLRIRVNNGGSRVRISLEVC-OH; disulfide 1-20)	–	–	–	–	>256
CC[C@H](C)[C@@H]1NC(=O)[C@H](CCCNC(=N)N)NC(=O)[C@H](C(C)C)NC(=O)[C@H](CCCNC(=N)N)NC(=O)[C@H](CO)NC(=O)[C@H](CCCNC(=N)N)NC(=O)[C@H](CCCNC(=N)N)NC(=O)[C@H](CC(N)=O)NC(=O)[C@H](CC(N)=O)NC(=O)[C@H](C(C)C)NC(=O)[C@H](CCCNC(=N)N)NC(=O)[C@H]([C@@H](C)CC)NC(=O)[C@H]([C@@H](C)O)NC(=O)[C@H](C(C)C)NC(=O)[C@@H](N)CSSC[C@@H](C(=O)O)NC(=O)[C@H](C(C)C)NC(=O)[C@H](CCC(N)=O)NC(=O)[C@H](CC(C)C)NC(=O)[C@H](CO)NC1=O [SySA-63] (H-CVTIRVNNRRSRVRISLQVC-OH; disulfide 1-20; N-terminus and C-terminus assumed)	256	64	256	64	–
CC[C@H](C)[C@@H]1NC(=O)[C@H](CCCNC(=N)N)NC(=O)[C@H](C(C)C)NC(=O)[C@@H](N)CSSC[C@@H](C(=O)O)NC(=O)[C@H](C(C)C)NC(=O)[C@H](CCC(N)=O)NC(=O)[C@H](CC(C)C)NC(=O)[C@H]([C@@H](C)O)NC(=O)[C@H](C(C)C)NC(=O)[C@H](CCCCN)NC(=O)[C@H](C(C)C)NC(=O)[C@H](CCCNC(=N)N)NC(=O)[C@H](CCCNC(=N)N)NC(=O)CNC(=O)CNC(=O)[C@H](CC(N)=O)NC(=O)[C@H](CC(N)=O)NC(=O)[C@H](CC(C)C)NC(=O)[C@H](CCCNC(=N)N)NC1=O [SySA-53] (H-CVRIRLNNGGRRVKVTLQVC-OH; disulfide 1-20; N-terminus and C-terminus assumed)	32	32	32	32	–
CC[C@H](C)[C@@H]1NC(=O)[C@H](CCCNC(=N)N)NC(=O)[C@H](C(C)C)NC(=O)CNC(=O)[C@H](CCCNC(=N)N)NC(=O)CNC(=O)CNC(=O)[C@H](CC(N)=O)NC(=O)[C@H](CC(=O)O)NC(=O)[C@H](CC(C)C)NC(=O)[C@H](CCCNC(=N)N)NC(=O)[C@H]([C@@H](C)CC)NC(=O)[C@H]([C@@H](C)O)NC(=O)[C@H](CC(C)C)NC(=O)[C@@H](N)CSSC[C@@H](C(=O)O)NC(=O)[C@H](C(C)C)NC(=O)[C@H](CCC(N)=O)NC(=O)[C@H](CC(C)C)NC(=O)[C@H](CO)NC1=O [SyRA-5] (H-CLTIRLDNGGRGVRISLQVC-OH; disulfide 1-20)	–	–	–	–	>256
CC[C@H](C)[C@@H]1NC(=O)[C@H](CCCNC(=N)N)NC(=O)[C@H]([C@@H](C)CC)NC(=O)[C@H](CCCNC(=N)N)NC(=O)[C@@H](N)CSSC[C@@H](C(=O)O)NC(=O)[C@H](CCC(=O)O)NC(=O)[C@H](C(C)C)NC(=O)[C@H](CCC(=O)O)NC(=O)[C@H](CC(C)C)NC(=O)[C@H](CCCNC(=N)N)NC(=O)[C@H](C(C)C)NC(=O)[C@H]([C@@H](C)O)NC(=O)CNC(=O)CNC(=O)[C@H](CCCNC(=N)N)NC(=O)[C@H](CC(=O)O)NC(=O)[C@H](CC(N)=O)NC(=O)[C@H](C(C)C)NC(=O)[C@H](CC(N)=O)NC1=O [SyRC-4] (H-CRIRINVNDRGGTVRLEVEC-OH; disulfide 1-20)	–	–	–	–	>256
CC[C@H](C)[C@@H]1NC(=O)[C@H](CCCNC(=N)N)NC(=O)[C@H](CC(C)C)NC(=O)CNC(=O)CNC(=O)CNC(=O)[C@H](CCCNC(=N)N)NC(=O)[C@H](CC(N)=O)NC(=O)[C@H](CC(N)=O)NC(=O)[C@H](CC(C)C)NC(=O)[C@H](CCCNC(=N)N)NC(=O)[C@H](C(C)C)NC(=O)[C@H](CCCNC(=N)N)NC(=O)[C@H](C(C)C)NC(=O)[C@@H](N)CSSC[C@@H](C(=O)O)NC(=O)[C@H](C(C)C)NC(=O)[C@H](CCC(N)=O)NC(=O)[C@H](CC(C)C)NC(=O)[C@H]([C@@H](C)O)NC1=O [SySA-27] (H-CVRVRLNNRGGGLRITLQVC-OH; disulfide 1-20; N-terminus and C-terminus assumed)	256	64	256	64	–
CC[C@H](C)[C@@H]1NC(=O)[C@H](CCCCN)NC(=O)[C@H](C(C)C)NC(=O)[C@H](CCCNC(=N)N)NC(=O)[C@H](CO)NC(=O)[C@H](CCCNC(=N)N)NC(=O)[C@H](CCCNC(=N)N)NC(=O)[C@H](CC(N)=O)NC(=O)[C@H](CC(=O)O)NC(=O)[C@H](C(C)C)NC(=O)[C@H](CCCNC(=N)N)NC(=O)[C@H]([C@@H](C)CC)NC(=O)[C@H]([C@@H](C)O)NC(=O)[C@H](CC(C)C)NC(=O)[C@@H](N)CSSC[C@@H](C(=O)O)NC(=O)[C@H](C(C)C)NC(=O)[C@H](CCC(=O)O)NC(=O)[C@H](CC(C)C)NC(=O)[C@H]([C@@H](C)O)NC1=O [SyRA-4] (H-CLTIRVDNRRSRVKITLEVC-OH; disulfide 1-20)	–	–	–	–	>256
CC[C@H](C)[C@@H]1NC(=O)[C@H](CC(N)=O)NC(=O)[C@H](C(C)C)NC(=O)[C@H](CCCCN)NC(=O)[C@H]([C@@H](C)CC)NC(=O)[C@H](CCCNC(=N)N)NC(=O)[C@@H](N)CSSC[C@@H](C(=O)O)NC(=O)[C@H](CCC(N)=O)NC(=O)[C@H](CC(C)C)NC(=O)[C@H](CCC(N)=O)NC(=O)[C@H](CC(C)C)NC(=O)[C@H](CCCCN)NC(=O)[C@H](C(C)C)NC(=O)[C@H](CCCNC(=N)N)NC(=O)[C@H](CCCNC(=N)N)NC(=O)[C@H](CCCNC(=N)N)NC(=O)CNC(=O)[C@H](CC(N)=O)NC(=O)[C@H](CC(N)=O)NC1=O [SySA-34] (H-CRIKVNINNGRRRVKLQLQC-OH; disulfide 1-20; N-terminus and C-terminus assumed)	128	32	128	32	–
CC(C)C[C@@H]1NC(=O)[C@H](CCCNC(=N)N)NC(=O)[C@H](C(C)C)NC(=O)[C@H](CCCNC(=N)N)NC(=O)[C@H](CC(C)C)NC(=O)[C@@H](N)CSSC[C@@H](C(=O)O)NC(=O)[C@H](C(C)C)NC(=O)[C@H](CCC(N)=O)NC(=O)[C@H](C(C)C)NC(=O)[C@H](CO)NC(=O)[C@H](C(C)C)NC(=O)[C@H](CCCCN)NC(=O)[C@H](C(C)C)NC(=O)CNC(=O)[C@H](CCCNC(=N)N)NC(=O)[C@H](CCCNC(=N)N)NC(=O)[C@H](CCCNC(=N)N)NC(=O)[C@H](CC(N)=O)NC(=O)[C@H](CC(N)=O)NC1=O [SySA-25] (H-CLRVRLNNRRRGVKVSVQVC-OH; disulfide 1-20; N-terminus and C-terminus assumed)	64	8	64	8	–
CC[C@H](C)[C@@H]1NC(=O)[C@H](CCCCN)NC(=O)[C@H](CC(C)C)NC(=O)[C@H](CCCNC(=N)N)NC(=O)CNC(=O)CNC(=O)[C@H](CCCNC(=N)N)NC(=O)[C@H](CC(N)=O)NC(=O)[C@H](CC(N)=O)NC(=O)[C@H](C(C)C)NC(=O)[C@H](CCCNC(=N)N)NC(=O)[C@H](C(C)C)NC(=O)[C@H](CCCNC(=N)N)NC(=O)[C@H](C(C)C)NC(=O)[C@@H](N)CSSC[C@@H](C(=O)O)NC(=O)[C@H](C(C)C)NC(=O)[C@H](CCC(N)=O)NC(=O)[C@H](C(C)C)NC(=O)[C@H](CO)NC1=O [SySA-83] (H-CVRVRVNNRGGRLKISVQVC-OH; disulfide 1-20; N-terminus and C-terminus assumed)	128	16	128	16	–
CC[C@H](C)[C@@H]1NC(=O)[C@H](CCCNC(=N)N)NC(=O)[C@H](C(C)C)NC(=O)CNC(=O)[C@H](CO)NC(=O)CNC(=O)CNC(=O)[C@H](CC(=O)O)NC(=O)[C@H](CC(N)=O)NC(=O)[C@H](CC(C)C)NC(=O)[C@H](CCCNC(=N)N)NC(=O)[C@H](C(C)C)NC(=O)[C@H](CCCNC(=N)N)NC(=O)[C@H](C(C)C)NC(=O)[C@@H](N)CSSC[C@@H](C(=O)O)NC(=O)[C@H](C(C)C)NC(=O)[C@H](CCC(N)=O)NC(=O)[C@H](C(C)C)NC(=O)[C@H](CO)NC1=O [SyRA-6] (H-CVRVRLNDGGSGVRISVQVC-OH; disulfide 1-20)	–	–	–	–	>256
